Test results published in publication PMC3961306, “Comparison of the Cancer Gene Targeting and Biochemical Selectivities of All Targeted Kinase Inhibitors Approved for Clinical Use” (PLoS ONE, 2014).
Like-named read-outs stand apart in the source and are kept apart here.

Assays:
Test in all cases: Kinase profiling in a biochemical assay panel (mobility shift assays and ELISA), %-inhibition at 1 μM; selectivity entropy
[1] = target: panel of more than 300 wild-type and mutant kinases (313 kinase panel) (Homo sapiens, UniProt Q08345)
[2] = target: panel of more than 300 wild-type and mutant kinases (313 kinase panel) (Homo sapiens, UniProt Q13177)
[3] = target: panel of more than 300 wild-type and mutant kinases (313 kinase panel) (Homo sapiens, UniProt P07332)
[4] = target: panel of more than 300 wild-type and mutant kinases (313 kinase panel) (Homo sapiens, UniProt P07949, Y791F)
Chain of panel of more than 300 wild-type and mutant kinases (313 kinase panel) (Homo sapiens, UniProt P07949, Y791F) (P07949 29-1114 Y791F): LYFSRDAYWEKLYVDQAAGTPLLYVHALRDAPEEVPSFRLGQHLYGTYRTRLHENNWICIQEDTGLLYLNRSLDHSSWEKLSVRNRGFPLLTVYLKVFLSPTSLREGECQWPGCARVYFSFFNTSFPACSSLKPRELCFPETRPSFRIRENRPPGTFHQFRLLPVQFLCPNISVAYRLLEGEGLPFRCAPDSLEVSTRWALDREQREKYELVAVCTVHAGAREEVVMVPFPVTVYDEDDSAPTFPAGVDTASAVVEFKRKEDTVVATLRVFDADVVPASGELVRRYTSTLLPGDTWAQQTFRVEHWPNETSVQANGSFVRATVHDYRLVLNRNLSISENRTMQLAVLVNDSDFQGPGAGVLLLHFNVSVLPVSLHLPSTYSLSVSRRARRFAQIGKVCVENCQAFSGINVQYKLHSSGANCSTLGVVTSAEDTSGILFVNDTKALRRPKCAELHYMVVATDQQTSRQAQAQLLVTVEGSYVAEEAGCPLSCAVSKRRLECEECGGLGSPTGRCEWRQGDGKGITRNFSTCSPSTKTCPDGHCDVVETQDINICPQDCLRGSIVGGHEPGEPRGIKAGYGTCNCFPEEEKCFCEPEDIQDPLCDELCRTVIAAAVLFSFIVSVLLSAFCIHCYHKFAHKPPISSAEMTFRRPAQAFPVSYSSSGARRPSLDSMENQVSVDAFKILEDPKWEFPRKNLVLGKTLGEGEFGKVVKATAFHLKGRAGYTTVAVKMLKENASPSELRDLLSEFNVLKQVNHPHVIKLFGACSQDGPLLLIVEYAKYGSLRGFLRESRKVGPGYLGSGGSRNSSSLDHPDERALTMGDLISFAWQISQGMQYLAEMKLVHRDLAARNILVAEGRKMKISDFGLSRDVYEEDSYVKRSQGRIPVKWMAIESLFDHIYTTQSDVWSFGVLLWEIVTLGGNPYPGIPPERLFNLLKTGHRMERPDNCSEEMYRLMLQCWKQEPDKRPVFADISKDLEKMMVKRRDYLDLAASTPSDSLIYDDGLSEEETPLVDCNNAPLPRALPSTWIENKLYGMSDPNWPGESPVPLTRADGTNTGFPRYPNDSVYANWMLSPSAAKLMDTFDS

[5] = target: panel of more than 300 wild-type and mutant kinases (313 kinase panel) (Homo sapiens, UniProt P19525)
[6] = target: panel of more than 300 wild-type and mutant kinases (313 kinase panel) (Homo sapiens, UniProt Q15303)
Chain of panel of more than 300 wild-type and mutant kinases (313 kinase panel) (Homo sapiens, UniProt Q15303) (Q15303 26-1308, change not shown): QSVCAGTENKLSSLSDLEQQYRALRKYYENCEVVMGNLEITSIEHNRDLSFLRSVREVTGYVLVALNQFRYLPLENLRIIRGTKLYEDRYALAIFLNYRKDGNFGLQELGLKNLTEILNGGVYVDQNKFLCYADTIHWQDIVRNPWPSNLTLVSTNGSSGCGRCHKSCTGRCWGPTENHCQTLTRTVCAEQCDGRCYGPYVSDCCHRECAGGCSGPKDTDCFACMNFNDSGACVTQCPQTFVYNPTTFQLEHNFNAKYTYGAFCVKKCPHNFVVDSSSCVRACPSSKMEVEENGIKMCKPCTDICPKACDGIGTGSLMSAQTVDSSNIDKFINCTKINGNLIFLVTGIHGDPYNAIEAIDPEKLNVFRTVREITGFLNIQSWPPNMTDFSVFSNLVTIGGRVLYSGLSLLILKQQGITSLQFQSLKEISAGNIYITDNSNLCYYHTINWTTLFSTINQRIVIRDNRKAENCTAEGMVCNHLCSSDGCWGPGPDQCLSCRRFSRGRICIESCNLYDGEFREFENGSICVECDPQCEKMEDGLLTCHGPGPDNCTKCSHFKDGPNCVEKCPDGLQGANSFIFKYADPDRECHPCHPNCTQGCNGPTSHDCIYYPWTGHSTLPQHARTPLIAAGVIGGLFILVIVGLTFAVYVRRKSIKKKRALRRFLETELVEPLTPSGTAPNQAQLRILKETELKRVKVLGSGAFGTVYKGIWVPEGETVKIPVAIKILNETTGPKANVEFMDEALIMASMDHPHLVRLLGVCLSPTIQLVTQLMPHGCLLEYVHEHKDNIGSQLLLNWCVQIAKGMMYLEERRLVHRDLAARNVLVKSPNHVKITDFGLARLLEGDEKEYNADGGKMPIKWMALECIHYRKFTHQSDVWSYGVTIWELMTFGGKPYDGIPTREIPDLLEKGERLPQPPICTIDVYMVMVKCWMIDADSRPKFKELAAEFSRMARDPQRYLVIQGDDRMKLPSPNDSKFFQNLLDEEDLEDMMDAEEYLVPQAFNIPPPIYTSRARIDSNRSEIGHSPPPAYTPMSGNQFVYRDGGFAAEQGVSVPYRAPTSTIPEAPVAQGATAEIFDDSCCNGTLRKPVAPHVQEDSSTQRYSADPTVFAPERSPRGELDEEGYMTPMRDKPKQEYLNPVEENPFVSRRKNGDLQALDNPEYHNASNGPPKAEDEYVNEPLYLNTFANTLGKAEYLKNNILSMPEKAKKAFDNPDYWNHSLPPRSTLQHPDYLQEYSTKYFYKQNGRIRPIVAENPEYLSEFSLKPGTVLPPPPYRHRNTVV

[7] = target: panel of more than 300 wild-type and mutant kinases (313 kinase panel) (Homo sapiens, UniProt Q9Y463)
Chain of panel of more than 300 wild-type and mutant kinases (313 kinase panel) (Homo sapiens, UniProt Q9Y463) (Q9Y463 whole entry, change not shown): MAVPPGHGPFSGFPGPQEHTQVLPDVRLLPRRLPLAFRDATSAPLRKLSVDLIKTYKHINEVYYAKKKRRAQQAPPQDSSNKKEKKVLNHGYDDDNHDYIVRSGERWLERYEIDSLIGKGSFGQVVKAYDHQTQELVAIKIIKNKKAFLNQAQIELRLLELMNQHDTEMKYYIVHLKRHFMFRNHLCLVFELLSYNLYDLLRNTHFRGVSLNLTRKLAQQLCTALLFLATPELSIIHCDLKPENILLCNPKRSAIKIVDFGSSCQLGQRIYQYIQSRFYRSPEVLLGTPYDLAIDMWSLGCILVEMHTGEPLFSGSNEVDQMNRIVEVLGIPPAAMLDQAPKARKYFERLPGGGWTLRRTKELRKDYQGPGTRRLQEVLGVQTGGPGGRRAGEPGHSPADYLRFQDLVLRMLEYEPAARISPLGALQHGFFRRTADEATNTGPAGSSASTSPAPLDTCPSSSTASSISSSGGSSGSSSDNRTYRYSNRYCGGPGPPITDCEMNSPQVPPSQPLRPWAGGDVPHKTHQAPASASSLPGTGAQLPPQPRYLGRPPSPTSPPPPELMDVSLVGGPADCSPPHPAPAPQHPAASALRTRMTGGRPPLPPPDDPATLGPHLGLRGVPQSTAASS

[8] = target: panel of more than 300 wild-type and mutant kinases (313 kinase panel) (Homo sapiens, UniProt Q9H422)
[9] = target: panel of more than 300 wild-type and mutant kinases (313 kinase panel) (Homo sapiens, UniProt P16234, V561D)
Chain of panel of more than 300 wild-type and mutant kinases (313 kinase panel) (Homo sapiens, UniProt P16234, V561D) (P16234 24-1089 V561D): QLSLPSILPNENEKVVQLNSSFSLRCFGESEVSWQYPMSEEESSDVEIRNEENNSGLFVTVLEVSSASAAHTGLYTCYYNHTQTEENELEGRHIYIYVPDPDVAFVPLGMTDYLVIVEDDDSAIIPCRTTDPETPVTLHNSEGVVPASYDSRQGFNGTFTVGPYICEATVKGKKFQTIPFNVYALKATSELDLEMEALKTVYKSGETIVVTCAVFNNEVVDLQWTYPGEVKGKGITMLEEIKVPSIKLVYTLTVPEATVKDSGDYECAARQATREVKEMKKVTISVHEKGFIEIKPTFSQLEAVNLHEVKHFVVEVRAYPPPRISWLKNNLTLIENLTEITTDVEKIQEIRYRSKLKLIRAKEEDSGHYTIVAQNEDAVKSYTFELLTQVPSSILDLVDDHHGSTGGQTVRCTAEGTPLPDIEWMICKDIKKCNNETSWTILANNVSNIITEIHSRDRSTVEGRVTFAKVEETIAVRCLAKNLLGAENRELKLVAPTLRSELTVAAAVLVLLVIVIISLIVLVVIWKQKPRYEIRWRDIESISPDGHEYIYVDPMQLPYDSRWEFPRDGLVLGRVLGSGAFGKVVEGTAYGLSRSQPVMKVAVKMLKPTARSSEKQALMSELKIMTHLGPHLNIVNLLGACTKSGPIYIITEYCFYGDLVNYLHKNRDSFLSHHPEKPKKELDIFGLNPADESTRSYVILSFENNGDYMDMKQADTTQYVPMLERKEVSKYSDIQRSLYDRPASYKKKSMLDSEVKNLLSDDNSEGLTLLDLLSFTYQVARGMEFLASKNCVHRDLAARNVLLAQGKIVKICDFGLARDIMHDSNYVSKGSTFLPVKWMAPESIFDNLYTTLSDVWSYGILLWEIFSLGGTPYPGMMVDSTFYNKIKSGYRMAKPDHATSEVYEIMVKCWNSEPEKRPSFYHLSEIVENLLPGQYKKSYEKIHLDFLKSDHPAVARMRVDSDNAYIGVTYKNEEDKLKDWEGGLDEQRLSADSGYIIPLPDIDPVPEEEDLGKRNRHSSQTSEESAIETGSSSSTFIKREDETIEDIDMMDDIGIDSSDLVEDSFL

[10] = target: T1, panel of more than 300 wild-type and mutant kinases (313 kinase panel) (Homo sapiens, UniProt P29323)
T1 sequence (P29323 19-1055): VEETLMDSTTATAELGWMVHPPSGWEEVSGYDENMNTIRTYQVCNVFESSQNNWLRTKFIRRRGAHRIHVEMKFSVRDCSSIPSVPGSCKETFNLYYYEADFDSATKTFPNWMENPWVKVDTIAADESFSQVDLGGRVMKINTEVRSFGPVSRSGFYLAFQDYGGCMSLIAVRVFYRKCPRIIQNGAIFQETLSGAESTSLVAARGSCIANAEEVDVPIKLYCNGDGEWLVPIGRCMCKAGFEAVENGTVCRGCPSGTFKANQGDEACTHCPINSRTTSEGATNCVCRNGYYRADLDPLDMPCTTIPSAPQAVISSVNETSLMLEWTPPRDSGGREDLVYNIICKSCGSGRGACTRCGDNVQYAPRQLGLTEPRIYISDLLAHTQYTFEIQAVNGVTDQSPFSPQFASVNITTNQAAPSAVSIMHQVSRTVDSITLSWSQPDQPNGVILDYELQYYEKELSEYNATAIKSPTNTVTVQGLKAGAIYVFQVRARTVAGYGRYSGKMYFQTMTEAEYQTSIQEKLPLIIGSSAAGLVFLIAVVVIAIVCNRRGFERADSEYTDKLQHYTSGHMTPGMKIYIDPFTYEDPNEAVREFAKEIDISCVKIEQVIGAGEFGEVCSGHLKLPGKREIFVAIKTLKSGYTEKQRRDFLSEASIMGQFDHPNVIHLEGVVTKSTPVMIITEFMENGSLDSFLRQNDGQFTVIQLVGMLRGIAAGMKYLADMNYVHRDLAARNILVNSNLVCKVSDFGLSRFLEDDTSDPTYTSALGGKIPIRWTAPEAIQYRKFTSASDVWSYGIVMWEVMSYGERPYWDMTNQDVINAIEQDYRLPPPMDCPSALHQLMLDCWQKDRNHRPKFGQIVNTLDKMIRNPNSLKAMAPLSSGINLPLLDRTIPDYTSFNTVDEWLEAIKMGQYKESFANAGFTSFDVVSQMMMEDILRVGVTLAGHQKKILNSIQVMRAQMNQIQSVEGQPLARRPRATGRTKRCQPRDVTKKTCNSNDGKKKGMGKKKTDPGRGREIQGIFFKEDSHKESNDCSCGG

[11] = target: panel of more than 300 wild-type and mutant kinases (313 kinase panel) (Homo sapiens, UniProt P19784)
Chain of panel of more than 300 wild-type and mutant kinases (313 kinase panel) (Homo sapiens, UniProt P19784) (P19784 whole entry, change not shown): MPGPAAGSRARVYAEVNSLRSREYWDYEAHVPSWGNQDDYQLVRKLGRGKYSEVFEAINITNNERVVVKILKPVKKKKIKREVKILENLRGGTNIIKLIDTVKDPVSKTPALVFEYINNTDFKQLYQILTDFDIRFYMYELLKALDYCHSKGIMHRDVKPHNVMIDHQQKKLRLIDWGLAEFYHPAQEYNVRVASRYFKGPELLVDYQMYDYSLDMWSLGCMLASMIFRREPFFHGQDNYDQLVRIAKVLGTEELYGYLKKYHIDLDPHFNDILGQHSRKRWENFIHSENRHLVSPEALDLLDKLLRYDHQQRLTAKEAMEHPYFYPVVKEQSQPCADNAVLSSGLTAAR

[12] = kinase DYRK1B, compound at 1 μM

SMILES | %-inhibition of DDR1 ([1]; kinase DDR1, compound at 1 μM) | %-inhibition of PAK2 ([2]; kinase PAK2, 1 μM) | %-inhibition of FES ([3]; kinase FES, compound at 1 μM) | %-inhibition of RET(Y791F) ([4]; kinase RET(Y791F), 1 μM) | %-inhibition of PKR ([5]; kinase PKR, 1 μM) | %-inhibition of HER4 ([6]; kinase HER4, compound at 1 μM) | %-inhibition of DYRK1B [7, 12] | %-inhibition of HIPK3 ([8]; kinase HIPK3, compound at 1 μM) | %-inhibition of PDGFRα(V561D) ([9]; kinase PDGFRα(V561D), 1 μM) | %-inhibition of EPHB2 ([10]; kinase EPHB2, compound at 1 μM) | %-inhibition, CK2α2/β ([11]; kinase CK2α2/β, 1 μM compound) | %-inhibition of RET(Y791F) ([4]; 1 µM) | %-inhibition of HER4 ([6]; 1 µM) | %-inhibition of PDGFRα(V561D) ([9]; 1 µM) | further results
O=S(=O)(c1cccc2cnccc12)N1CCCNCC1 [fasudil] | -1.19% | -16% | -3.78% | 1% | -4.39% | -0.227% | 4.76% | -0.764% | 9% | -7.43% | -3.75% | – | – | – | –
CO[C@H]1C[C@@H]2CC[C@@H](C)[C@@](O)(O2)C(=O)C(=O)N2CCCC[C@H]2C(=O)O[C@H]([C@H](C)C[C@@H]2CC[C@@H](OCCO)[C@H](OC)C2)CC(=O)[C@H](C)/C=C(\C)[C@@H](O)[C@@H](OC)C(=O)[C@H](C)C[C@H](C)/C=C/C=C/C=C/1C [everolimus] | -2.76% | -8% | -2.38% | -3.57% | -8.45% | -7% | -8% | -8% | -6% | -7% | -1.28% | – | – | – | –
CNC(=O)c1cc(Oc2ccc(NC(=O)Nc3ccc(Cl)c(C(F)(F)F)c3)c(F)c2)ccn1 [regorafenib] | 101% | -1.3% | -0.247% | – | -4.48% | 3.81% | -7.4% | 88% | 101% | 84% | -5.46% | 102% | – | – | –
CC(=O)Nc1cccc(-n2c(=O)n(C3CC3)c(=O)c3c(Nc4ccc(I)cc4F)n(C)c(=O)c(C)c32)c1 [trametinib] | -2% | -9% | -1.55% | -1.71% | 1.13% | 2.34% | 3.34% | 0.0849% | 2.22% | -8% | -5.29% | – | – | – | –
CO[C@H]1C[C@@H]2CC[C@@H](C)[C@@](O)(O2)C(=O)C(=O)N2CCCC[C@H]2C(=O)O[C@H]([C@H](C)C[C@@H]2CC[C@@H](OC(=O)C(C)(CO)CO)[C@H](OC)C2)CC(=O)[C@H](C)/C=C(\C)[C@@H](O)[C@@H](OC)C(=O)[C@H](C)C[C@H](C)/C=C/C=C/C=C/1C [temsirolimus] | -5.36% | -1.81% | -4.68% | -0.679% | -14% | -5.46% | -11% | 0.626% | -4% | -5.66% | -5.28% | – | – | – | –
CS(=O)(=O)CCNCc1ccc(-c2ccc3ncnc(Nc4ccc(OCc5cccc(F)c5)c(Cl)c4)c3c2)o1 [lapatinib] | 33% | 7% | 5% | – | -0.192% | – | 3% | 0.236% | – | 4.6% | -3.45% | -5% | 102% | -1% | –
Cc1cn(-c2cc(NC(=O)c3ccc(C)c(Nc4nccc(-c5cccnc5)n4)c3)cc(C(F)(F)F)c2)cn1 [nilotinib] | 103% | – | -19% | – | – | – | -7.58% | 12% | – | 85% | – | 16% | 73% | 100% | %-inhibition of PAK2 ([2]; 1 µM): -40%; %-inhibition of PKR ([5]; 1 µM): 0%; %-inhibition, CK2α2/β ([11]; 1 µM): -4.26%
C#Cc1cccc(Nc2ncnc3cc(OCCOC)c(OCCOC)cc23)c1 [erlotinib] | – | – | – | – | – | – | – | – | – | – | – | 70% | 97% | 56% | %-inhibition of DDR1 ([1]; 1 µM): 93%; %-inhibition of PAK2 ([2]; 1 µM): 5%; %-inhibition of FES ([3]; 1 µM): 8.5%; %-inhibition of PKR ([5]; 1 µM): 22%; %-inhibition of DYRK1B [7]: -28%; %-inhibition of HIPK3 ([8]; 1 µM): 10%; %-inhibition of EPHB2 ([10]; 1 µM): 23%; %-inhibition, CK2α2/β ([11]; 1 µM): -5.48%
